This is an account of results in publication PMC8758481, “Astroglial tracer BU99008 detects multiple binding sites in Alzheimer’s disease brain” (Molecular Psychiatry, 2021).

Read-outs that look alike come from different tables or passages of the source.

Test [1] addresses imidazoline-2 binding sites (I2BS). Kind of test: ^3H-BU99008 competition binding assay with unlabelled ligands in temporal cortex brain homogenate. The arrangement: species or system human. How it is done: (§1) After 1 h incubation a similar protocol as saturation binding assay was done and the binding was quantified using the scintillation counter.
(§2) The competition binding data was fitted and analysed using non-linear regression competitive-binding function of GraphPad Prism 8.3 software to determine IC50 (half-maximal inhibitory concentration) values.

In test [2] the target is T1, monoamine oxidase B (MAO B) (Homo sapiens, UniProt P27338).
T1 construct: from tissue; host or cells: large frozen postmortem human brain sections (control, sporadic AD, AβPParc carrier)
T1 sequence (P27338 1-520): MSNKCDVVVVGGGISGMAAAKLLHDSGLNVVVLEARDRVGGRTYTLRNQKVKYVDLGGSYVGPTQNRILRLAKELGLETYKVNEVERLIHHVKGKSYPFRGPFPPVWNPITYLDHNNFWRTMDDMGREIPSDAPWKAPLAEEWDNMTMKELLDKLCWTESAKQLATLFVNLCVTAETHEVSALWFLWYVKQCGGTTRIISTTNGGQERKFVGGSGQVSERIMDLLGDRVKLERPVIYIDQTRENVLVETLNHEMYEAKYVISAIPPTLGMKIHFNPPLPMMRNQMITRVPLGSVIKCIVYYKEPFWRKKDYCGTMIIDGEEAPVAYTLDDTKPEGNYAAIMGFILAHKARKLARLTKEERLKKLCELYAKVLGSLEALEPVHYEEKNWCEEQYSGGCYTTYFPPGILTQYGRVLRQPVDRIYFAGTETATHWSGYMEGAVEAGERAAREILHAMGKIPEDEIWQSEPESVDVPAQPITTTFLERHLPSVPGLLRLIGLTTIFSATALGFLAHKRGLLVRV
Kind of test: ^3H-Deprenyl competition binding assay in temporal cortex brain homogenate. As to conditions: for IC50: vs 10 nM ^3H-Deprenyl, two-site fit. As for the experimental part: as §1, §2

Test [3] deals with imidazoline-2 binding sites (I2BS). The test is described as follows: ^3H-BU99008 competition binding with unlabelled BU99008 in the presence of MAO B inhibitors. Conditions: for IC50: unlabelled BU99008 alone. The arrangement: species or system human. As for the experimental part: A similar protocol as saturation binding assay was performed after 1 h incubation and the binding was quantified using the scintillation counter.
as §2

Test [4] relates to imidazoline-2 binding sites (I2BS). Also on record: method as in PMID 29523627, PMID 24711648. As to conditions: rhesus brain, dose-dependent; ref [43], [51]; cited from earlier work.
For test [5] the test system is unchanged. The arrangement: method as in PMID 29523627. As to conditions: human brain, pretreatment, highest dose of 80 mg; ref [43]; cited from earlier work.
[6] abbreviates: AD temporal cortex, vs 1 nM ^3H-BU99008, two-site fit, read-out: IC50_1.
Setting [7] is: AD temporal cortex, vs 1 nM ^3H-BU99008, two-site fit, read-out: IC50_2.
[8] abbreviates: CN temporal cortex, vs 1 nM ^3H-BU99008, two-site fit, read-out: IC50_1.
[9] abbreviates: CN temporal cortex, vs 1 nM ^3H-BU99008, two-site fit, read-out: IC50_2.

Take `Cl.c1ccc2oc(C3=NCCN3)cc2c1` [2-BFI, 2-(Benzofuran-2-yl)-2-imidazoline hydrochloride]: the IC50 is 0.041 nM in test [1] (setting [6]), 165 nM in test [1] (setting [7]), 0.34 nM in test [1] (setting [8]) and 150 nM in test [1] (setting [9]). For the same molecule, the “proportion of Super high-affinity (SH; 10^-13 to -11 M) binding sites” value (“proportion of Super high-affinity” for short) in test [1] (AD, ^3H-BU99008 competition) was determined as 19%. Also, in test [1] (CN, ^3H-BU99008 competition), the “proportion of High-affinity (HA; 10^-10 to -9 M) binding sites” value is given as 18%. The “proportion of Low-affinity (LA; 10^-7 to -6 M) binding sites” value (from here on “proportion of Low-affinity”) in test [1] (CN, ^3H-BU99008 competition) is given as 82%.
For the molecule `Cn1c(C2=NCCN2)cc2ccccc21` [BU99008, 2-(4,5-dihydro-1H-imidazol-2-yl)-1-methyl-1H-indole], the IC50 in test [1] (setting [6]) came out at 1.43 nM; in test [1] (setting [7]) it was 342 nM; in test [1] (setting [9]) it was 2.45 nM; in test [2] (AD temporal cortex, read-out: IC50_1), 0.002 nM; in test [2] (AD temporal cortex, read-out: IC50_2), 254 nM; in test [2] (CN temporal cortex, read-out: IC50_1), 0.72 nM. The IC50 is 3110 nM in test [2] (CN temporal cortex, read-out: IC50_2); 1.73 nM in test [3] (AD (85 years), one-site, read-out: IC50); 2.81 nM in test [3] (CN (71 years), vs 1 nM ^3H-BU99008, read-out: IC50_2 (HA)). Besides, the “proportion of High-affinity (HA; 10^-10 to -9 M) binding sites” value in test [1] (AD, ^3H-BU99008 competition) was 78%; in test [1] (CN, ^3H-BU99008 competition), 75%. Moreover, the “proportion of Low-affinity” value in test [1] (AD, ^3H-BU99008 competition) turned out to be 22%. In test [1] (CN, ^3H-BU99008 competition), the “proportion of Super high-affinity” value stood at 25%. In addition, the “majority of binding to HA binding sites” value in test [1] (both CN and AD cases, ^3H-BU99008 competition) is reported as 75–78%. The “majority of binding to LA sites” value in test [2] is given as 70–78%.
Regarding `C[C@H](NCc1ccc(OCc2cccc(F)c2)cc1)C(N)=O` [safinamide], the “effect on binding of BU99008 to the SH binding sites” value in test [3] (CN, ^3H-BU99008 competition) is “completely blocked”. Moreover, in test [3] (CN, lower concentration ranges [10^-14-10^-9]), the “decrease in ^3H-BU99008 total binding” value is 15–30%. For the same molecule, in test [3] (both CN and AD cases, increasing concentrations of inhibitor), the “effect on binding of BU99008 to HA binding sites” value is on record as “not affected”.
For `Cl.c1ccc2nc(C3=NCCN3)ccc2c1` [BU224, 2-(4,5-Dihydroimidazol-2-yl)quinoline hydrochloride], the IC50 was 416 nM in test [1] (AD temporal cortex, vs 1 nM ^3H-BU99008, single binding site, read-out: IC50); 0.026 nM in test [1] (setting [8]); 186 nM in test [1] (setting [9]). The “proportion of Low-affinity” value in test [1] (AD, ^3H-BU99008 competition) was 100%; in test [1] (CN, ^3H-BU99008 competition) it was 56%. The “proportion of Super high-affinity” value in test [1] (CN, ^3H-BU99008 competition) is given as 44%. For the same molecule, in test [4], the “^11C-BU99008 signal throughout the brain after pretreatment” value was “significantly reduced”.
With `c1ccc2c(c1)OCC(C1=NCCN1)O2` (stereo not drawn) [idazoxan], the “average block of ^11C-BU99008 uptake across all regions” value in test [5] is reported as 60%.
